Measured values as given in patent publication US9782399B2, “Pharmaceutical compositions which inhibit FKBP52-mediated regulation of androgen receptor function and methods of using same” (The United States of America, as represented by the …, priority 2009, dated 2017).

Legend:
wild type human AR = target: T1, wild type human AR (Homo sapiens, UniProt P10275); assay: Yeast AR-mediated β-galactosidase reporter assay, control strain (wild type AR alone); assay type: cell-based; settings: without FKBP52
T1 construct: expressed in transfected cells; host or cells: Saccharomyces cerevisiae W303 (PDR5 deleted)
T1 sequence (P10275 1-920): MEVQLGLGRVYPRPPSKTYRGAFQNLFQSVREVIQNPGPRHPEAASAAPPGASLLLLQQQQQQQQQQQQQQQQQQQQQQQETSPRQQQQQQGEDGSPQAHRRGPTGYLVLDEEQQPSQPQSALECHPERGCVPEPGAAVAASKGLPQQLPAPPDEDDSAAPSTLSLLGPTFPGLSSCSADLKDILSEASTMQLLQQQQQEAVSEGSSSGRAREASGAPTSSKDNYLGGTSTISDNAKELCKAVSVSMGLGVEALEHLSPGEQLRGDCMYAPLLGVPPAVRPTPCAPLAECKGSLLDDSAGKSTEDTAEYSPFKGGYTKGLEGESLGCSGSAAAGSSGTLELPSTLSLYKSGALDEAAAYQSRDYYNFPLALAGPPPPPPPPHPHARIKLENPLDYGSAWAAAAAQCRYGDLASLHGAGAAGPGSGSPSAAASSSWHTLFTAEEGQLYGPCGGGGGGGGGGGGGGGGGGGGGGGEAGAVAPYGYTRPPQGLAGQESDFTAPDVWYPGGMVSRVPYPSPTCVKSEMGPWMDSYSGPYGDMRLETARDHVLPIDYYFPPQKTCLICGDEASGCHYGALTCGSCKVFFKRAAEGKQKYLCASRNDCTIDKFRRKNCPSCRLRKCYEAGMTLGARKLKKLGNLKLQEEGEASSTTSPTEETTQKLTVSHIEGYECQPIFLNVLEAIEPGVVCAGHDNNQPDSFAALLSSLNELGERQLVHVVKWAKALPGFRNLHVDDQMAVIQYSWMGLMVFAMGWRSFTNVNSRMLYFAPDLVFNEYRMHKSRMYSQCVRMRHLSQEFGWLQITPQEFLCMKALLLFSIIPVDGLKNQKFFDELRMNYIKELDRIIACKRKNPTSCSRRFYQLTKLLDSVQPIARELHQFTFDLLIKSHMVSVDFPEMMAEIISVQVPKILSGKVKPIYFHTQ
Excerpt: The yeast host strain used to make these four strains, W303, has his3, trp1 and ura3 mutations, so that growth on media lacking tryptophan, histidine and uracil requires the presence of all three plasmids. The URA3-marked steroid receptor-mediated β-galactosidase reporter plasmid (pUCΔss-26X) was the gift of Dr. Brian Freeman, University of Illinois. The pleiotropic drug resistance 5 (PDR5) gene was deleted in this strain, because PDR5 is an ATP-binding cassette transporter that could potentially transport the test compounds out of the cells, thereby hindering their identification. By deleting PDR5, this potential problem is avoided. […]
(§1) The strains were cultivated overnight using a shaking incubator in SC-HUW medium (synthetic complete medium lacking histidine, uracil and tryptophan). […] About one hour later, the plate was read in a luminometer. The measured RLU (relative light units) was normalized to the cell density of the cultures, at the time they were added to the plates, to give a measure of RLU/OD unit. […]
The inventors began testing compounds in the assay by starting with a standard concentration of about 50 μM for all compounds tested. […] The plates are incubated for approximately another 1-3 hours, preferable about 1 hour and 30 minutes, and the light emission is measured on a microplate luminometer (Luminoskan Ascent, Thermo Labsystems). […]

[1] = test system: FKBP52-enhanced AR function; assay: Yeast AR-mediated β-galactosidase reporter assay, tester strain (AR-P723S + FKBP52); assay type: cell-based; settings: DHT-induced β-galactosidase reporter
Excerpt: To investigate FTA inhibitory activity, a modified yeast-based assay was created to screen an in-house compound library. The receptor-mediated β-galactosidase assays were initially based on published methods ((Riggs D L, et al., EMBO J., 22:1158-67 (2003); Cox M B, et al., Toxicol. Lett. 129:13-21 (2002) and Balsiger, H. A., and Cox, M. B., in Methods in Molecular Biology: The Nuclear Receptor Superfamily, vol. 505. Edited by I. J. McEwan. The Humana Press, Totowa, N.J. (2008)), however, the assay methods were modified substantially to allow use of a 96-well plate format. All cDNAs for the FKBP proteins were obtained from the laboratory of David Smith at the Mayo Clinic, Arizona. The AR-P723S mutant was originally described previously (Cheung-Flynn, J. et al. (2005)).
All receptors and FKBP proteins were expressed from a set of yeast expression vectors that are commercially available (Mumberg, D., et al., Gene 156: 119-122 (1995)). […]
as §1

effect on AR function alone (wild type human AR): does not affect AR function alone
inhibition of FKBP52-enhanced AR function [1]: inhibits FKBP52-enhanced AR function
Compound: Cc1ccc(NC(=O)c2ccccc2C(=O)O)cc1C [Compound 1]
